Legend:
Experiment in all cases: biochemical
Design in all cases: KINOMEscan active-site competition binding panel (468 kinase assays), per cent of control at 1000 nM
Conditions in all cases: KINOMEscan per cent of control (binding competition); read-out: Percent Control
[1] = biological target: T1, AMPK-alpha1 (Homo sapiens, UniProt Q13131)
T1 construct: gene PRKAA1
Text: (§1) Figure S7 / Percent Control

[2] = biological target: MUSK (Homo sapiens, UniProt O15146)
Text: as §1

[3] = biological target: PLK4 (Homo sapiens, UniProt O00444)
Text: as §1

[4] = biological target: ACVRL1 (Homo sapiens, UniProt P37023)
Sequence of ACVRL1 (P37023 whole entry): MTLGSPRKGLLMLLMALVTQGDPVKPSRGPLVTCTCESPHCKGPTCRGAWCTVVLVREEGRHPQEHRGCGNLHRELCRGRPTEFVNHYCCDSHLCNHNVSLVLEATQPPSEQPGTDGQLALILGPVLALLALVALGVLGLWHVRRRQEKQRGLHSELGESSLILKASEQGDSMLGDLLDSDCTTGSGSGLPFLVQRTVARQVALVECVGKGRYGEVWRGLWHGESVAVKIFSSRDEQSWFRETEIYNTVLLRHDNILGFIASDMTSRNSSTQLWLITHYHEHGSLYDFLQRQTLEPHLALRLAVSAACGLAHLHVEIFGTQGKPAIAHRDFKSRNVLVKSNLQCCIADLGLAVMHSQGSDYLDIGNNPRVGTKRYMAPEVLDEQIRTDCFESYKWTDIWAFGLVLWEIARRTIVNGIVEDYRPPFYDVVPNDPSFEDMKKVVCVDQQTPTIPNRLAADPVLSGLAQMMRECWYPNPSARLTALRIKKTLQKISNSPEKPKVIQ
Text: as §1

[5] = biological target: CDK8 (Homo sapiens, UniProt P49336)
Text: as §1

[6] = biological target: AKT3 (Homo sapiens, UniProt Q9Y243)
Text: as §1

[7] = biological target: T2, ERK5 (Homo sapiens, UniProt Q13164)
T2 construct: gene MAPK7
T2 sequence (Q13164 whole entry): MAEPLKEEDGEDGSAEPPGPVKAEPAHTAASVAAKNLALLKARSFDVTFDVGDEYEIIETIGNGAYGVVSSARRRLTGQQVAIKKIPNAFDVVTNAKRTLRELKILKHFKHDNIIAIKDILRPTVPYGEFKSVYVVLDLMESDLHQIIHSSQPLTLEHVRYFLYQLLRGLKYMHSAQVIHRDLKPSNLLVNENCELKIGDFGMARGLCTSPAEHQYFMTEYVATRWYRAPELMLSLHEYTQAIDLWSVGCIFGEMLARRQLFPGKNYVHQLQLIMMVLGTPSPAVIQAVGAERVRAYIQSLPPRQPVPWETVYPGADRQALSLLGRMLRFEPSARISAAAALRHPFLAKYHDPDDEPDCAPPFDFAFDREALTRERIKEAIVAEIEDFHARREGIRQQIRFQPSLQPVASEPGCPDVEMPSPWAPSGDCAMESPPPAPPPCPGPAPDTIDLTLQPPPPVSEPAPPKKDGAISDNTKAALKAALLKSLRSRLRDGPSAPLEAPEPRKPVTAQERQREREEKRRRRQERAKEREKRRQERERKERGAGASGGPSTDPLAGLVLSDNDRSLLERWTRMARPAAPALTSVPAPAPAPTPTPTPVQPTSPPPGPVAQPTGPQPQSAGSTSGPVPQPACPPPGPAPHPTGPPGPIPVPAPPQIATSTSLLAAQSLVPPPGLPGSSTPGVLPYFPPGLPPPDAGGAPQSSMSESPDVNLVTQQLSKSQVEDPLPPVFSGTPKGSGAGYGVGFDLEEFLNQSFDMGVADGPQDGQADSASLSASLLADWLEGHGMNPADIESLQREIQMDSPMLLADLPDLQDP
Text: as §1

[8] = biological target: WEE1 (Homo sapiens, UniProt P30291)
Text: as §1

[9] = biological target: T3, PCTK1 (Homo sapiens, UniProt Q00536)
T3 construct: gene CDK16
Text: as §1

[10] = biological target: MARK2 (Homo sapiens, UniProt Q7KZI7)
Sequence of MARK2 (Q7KZI7 whole entry): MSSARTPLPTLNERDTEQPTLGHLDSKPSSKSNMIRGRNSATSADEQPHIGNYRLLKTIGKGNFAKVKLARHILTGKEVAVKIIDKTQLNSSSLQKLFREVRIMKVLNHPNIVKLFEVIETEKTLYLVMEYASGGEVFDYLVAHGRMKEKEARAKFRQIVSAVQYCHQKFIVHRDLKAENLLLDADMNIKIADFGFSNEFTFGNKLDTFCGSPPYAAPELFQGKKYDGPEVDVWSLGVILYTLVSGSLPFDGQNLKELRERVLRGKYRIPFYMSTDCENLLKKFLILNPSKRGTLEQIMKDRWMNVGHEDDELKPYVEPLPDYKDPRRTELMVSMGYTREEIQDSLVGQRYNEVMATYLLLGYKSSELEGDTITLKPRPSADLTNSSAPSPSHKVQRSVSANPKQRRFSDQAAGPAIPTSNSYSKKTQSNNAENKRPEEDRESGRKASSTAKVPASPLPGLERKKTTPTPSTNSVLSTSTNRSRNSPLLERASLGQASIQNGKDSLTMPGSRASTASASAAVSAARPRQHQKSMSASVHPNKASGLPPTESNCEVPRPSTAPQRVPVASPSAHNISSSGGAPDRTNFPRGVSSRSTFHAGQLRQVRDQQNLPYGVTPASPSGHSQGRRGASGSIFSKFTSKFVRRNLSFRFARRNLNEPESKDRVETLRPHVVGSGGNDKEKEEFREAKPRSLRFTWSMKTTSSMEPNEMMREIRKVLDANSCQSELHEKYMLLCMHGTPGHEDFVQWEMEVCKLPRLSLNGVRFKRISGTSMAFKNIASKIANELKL
Text: as §1

[11] = biological target: T4, RSK3(Kin.Dom.2-C-terminal) (Homo sapiens, UniProt Q15349)
T4 construct: gene RPS6KA2; Kin.Dom.2-C-terminal
Text: as §1

[12] = biological target: PIK3CA(Q546K) (Homo sapiens, UniProt P42336, Q546K)
Text: as §1

[13] = biological target: T5, ABL1(M351T)-phosphorylated (Homo sapiens, UniProt P00519, M351T)
T5 construct: phosphorylated
Text: as §1

[14] = biological target: TNK2 (Homo sapiens, UniProt Q07912)
Sequence of TNK2 (Q07912 whole entry): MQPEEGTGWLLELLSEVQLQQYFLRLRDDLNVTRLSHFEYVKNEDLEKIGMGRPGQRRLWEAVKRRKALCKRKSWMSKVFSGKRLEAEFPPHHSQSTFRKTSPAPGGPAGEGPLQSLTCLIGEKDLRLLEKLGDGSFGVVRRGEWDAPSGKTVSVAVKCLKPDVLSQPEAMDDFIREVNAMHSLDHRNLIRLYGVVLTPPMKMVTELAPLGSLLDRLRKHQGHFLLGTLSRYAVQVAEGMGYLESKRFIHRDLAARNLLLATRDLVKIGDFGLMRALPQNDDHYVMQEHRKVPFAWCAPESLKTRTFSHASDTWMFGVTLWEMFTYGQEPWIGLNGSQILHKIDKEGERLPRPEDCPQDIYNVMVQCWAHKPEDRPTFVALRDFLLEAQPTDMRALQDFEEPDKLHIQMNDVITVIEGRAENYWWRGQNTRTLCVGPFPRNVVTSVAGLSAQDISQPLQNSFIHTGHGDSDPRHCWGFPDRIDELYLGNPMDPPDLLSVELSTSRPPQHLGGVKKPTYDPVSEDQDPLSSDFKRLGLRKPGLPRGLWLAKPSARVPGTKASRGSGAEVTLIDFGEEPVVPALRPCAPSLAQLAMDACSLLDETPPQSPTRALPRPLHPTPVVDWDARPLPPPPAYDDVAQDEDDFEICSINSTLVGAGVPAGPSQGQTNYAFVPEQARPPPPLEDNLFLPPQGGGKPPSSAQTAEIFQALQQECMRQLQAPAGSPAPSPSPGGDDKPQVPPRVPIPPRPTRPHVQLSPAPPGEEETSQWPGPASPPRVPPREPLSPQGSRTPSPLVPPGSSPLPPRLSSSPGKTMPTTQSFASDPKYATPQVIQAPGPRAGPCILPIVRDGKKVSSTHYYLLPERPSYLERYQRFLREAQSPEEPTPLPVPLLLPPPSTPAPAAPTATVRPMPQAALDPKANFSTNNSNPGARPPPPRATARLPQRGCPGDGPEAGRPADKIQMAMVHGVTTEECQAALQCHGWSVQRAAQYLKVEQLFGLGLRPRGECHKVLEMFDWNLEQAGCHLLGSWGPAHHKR
Text: as §1

[15] = biological target: T6, RPS6KA5(Kin.Dom.1-N-terminal) (Homo sapiens, UniProt O75582)
T6 construct: Kin.Dom.1-N-terminal
Text: as §1

[16] = biological target: MYLK (Homo sapiens, UniProt Q15746)
Text: as §1

[17] = biological target: ERBB4 (Homo sapiens, UniProt Q15303)
Text: as §1

[18] = biological target: T7, RPS6KA4(Kin.Dom.1-N-terminal) (Homo sapiens, UniProt O75676)
T7 construct: Kin.Dom.1-N-terminal
Text: as §1

[19] = biological target: BRSK2 (Homo sapiens, UniProt Q8IWQ3)
Text: as §1

[20] = biological target: GRK2 (Homo sapiens, UniProt P25098)
Text: as §1

[21] = biological target: T8, ABL1(E255K)-phosphorylated (Homo sapiens, UniProt P00519, E255K)
T8 construct: phosphorylated
Text: as §1

[22] = biological target: T9, ERK8 (Homo sapiens, UniProt Q8TD08)
T9 construct: gene MAPK15
Text: as §1

[23] = biological target: BUB1 (Homo sapiens, UniProt O43683)
Sequence of BUB1 (O43683 whole entry): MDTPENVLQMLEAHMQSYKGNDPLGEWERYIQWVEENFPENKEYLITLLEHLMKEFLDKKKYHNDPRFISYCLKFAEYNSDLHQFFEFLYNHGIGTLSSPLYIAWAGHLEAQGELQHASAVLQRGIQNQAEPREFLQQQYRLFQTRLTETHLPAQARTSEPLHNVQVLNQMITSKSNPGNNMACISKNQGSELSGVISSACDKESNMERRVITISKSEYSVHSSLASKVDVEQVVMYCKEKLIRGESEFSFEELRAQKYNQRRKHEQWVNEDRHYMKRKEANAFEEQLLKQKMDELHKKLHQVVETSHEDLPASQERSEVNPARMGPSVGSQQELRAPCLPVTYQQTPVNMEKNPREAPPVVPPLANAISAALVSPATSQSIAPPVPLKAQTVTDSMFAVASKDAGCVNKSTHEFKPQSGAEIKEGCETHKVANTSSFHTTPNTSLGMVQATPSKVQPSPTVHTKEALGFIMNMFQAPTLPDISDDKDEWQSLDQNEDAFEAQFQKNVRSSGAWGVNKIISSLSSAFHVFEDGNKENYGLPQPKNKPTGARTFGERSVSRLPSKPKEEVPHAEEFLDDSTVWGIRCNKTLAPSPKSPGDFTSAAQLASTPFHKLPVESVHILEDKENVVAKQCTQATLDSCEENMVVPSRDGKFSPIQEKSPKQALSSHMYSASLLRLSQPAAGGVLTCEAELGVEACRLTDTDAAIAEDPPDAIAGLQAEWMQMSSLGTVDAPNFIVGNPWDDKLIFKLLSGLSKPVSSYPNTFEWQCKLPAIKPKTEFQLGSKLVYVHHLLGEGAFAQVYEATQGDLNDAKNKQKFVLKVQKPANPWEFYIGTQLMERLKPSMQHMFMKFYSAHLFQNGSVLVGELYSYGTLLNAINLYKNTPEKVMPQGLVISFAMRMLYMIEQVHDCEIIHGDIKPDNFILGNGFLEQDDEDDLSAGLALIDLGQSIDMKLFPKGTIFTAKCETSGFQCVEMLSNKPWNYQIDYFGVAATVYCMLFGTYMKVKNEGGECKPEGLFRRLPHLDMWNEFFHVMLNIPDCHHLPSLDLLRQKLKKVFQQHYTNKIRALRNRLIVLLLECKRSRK
Text: as §1

[24] = biological target: T10, MEK4 (Homo sapiens, UniProt P45985)
T10 construct: gene MAP2K4
Text: as §1

T1 sequence (Q13131 whole entry): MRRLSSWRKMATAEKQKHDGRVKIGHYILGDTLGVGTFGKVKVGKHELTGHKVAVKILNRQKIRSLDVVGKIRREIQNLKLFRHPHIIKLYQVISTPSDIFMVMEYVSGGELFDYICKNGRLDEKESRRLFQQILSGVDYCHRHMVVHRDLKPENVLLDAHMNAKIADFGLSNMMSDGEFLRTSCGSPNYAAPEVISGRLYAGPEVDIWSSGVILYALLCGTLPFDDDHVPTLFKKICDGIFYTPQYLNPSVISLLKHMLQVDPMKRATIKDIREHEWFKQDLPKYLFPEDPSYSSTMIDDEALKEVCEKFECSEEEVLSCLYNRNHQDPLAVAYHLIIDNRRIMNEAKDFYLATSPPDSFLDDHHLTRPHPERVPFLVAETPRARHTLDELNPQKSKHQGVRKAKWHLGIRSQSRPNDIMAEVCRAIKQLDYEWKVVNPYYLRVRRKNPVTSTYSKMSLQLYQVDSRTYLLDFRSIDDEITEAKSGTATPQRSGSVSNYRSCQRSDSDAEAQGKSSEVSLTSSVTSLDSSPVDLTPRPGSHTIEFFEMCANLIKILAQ

Structure (SMILES): Cn1c(=O)[nH]c2ccc(-c3cccc(C(=O)NC4CCn5ccnc5C4)c3)cc21 (stereo not drawn) [Z36-MP5]
- remaining binding at 1 µM [1]: 92%
- remaining binding at 1 µM [2]: 83%
- remaining binding at 1 µM [3]: 31%
- remaining binding at 1 µM [4]: 92%
- remaining binding at 1 µM [5]: 55%
- remaining binding at 1 µM [6]: 91%
- remaining binding at 1 µM [7]: 86%
- remaining binding at 1 µM [8]: 100%
- remaining binding at 1 µM [9]: 82%
- remaining binding at 1 µM [10]: 100%
- remaining binding at 1 µM [11]: 81%
- remaining binding at 1 µM [12]: 54%
- remaining binding at 1 µM [13]: 59%
- remaining binding at 1 µM [14]: 41%
- remaining binding at 1 µM [15]: 75%
- remaining binding at 1 µM [16]: 81%
- remaining binding at 1 µM [17]: 96%
- remaining binding at 1 µM [18]: 90%
- remaining binding at 1 µM [19]: 100%
- remaining binding at 1 µM [20]: 83%
- remaining binding at 1 µM [21]: 79%
- remaining binding at 1 µM [22]: 83%
- remaining binding at 1 µM [23]: 73%
- remaining binding at 1 µM [24]: 84%

— article PMC10924921, “Mi-2β promotes immune evasion in melanoma by activating EZH2 methylation” (Nature Communications, 2024)
